Measured values as given in patent publication US12311011B2, “Des-acyl ghrelin and analogs as cancer therapies” (Cornell University, priority 2018, dated 2025).
Where no end group is shown, it is not given here. The star is where a group is joined. Octanoyl = CCCCCCCC(=O)*

Columns and labels:
[1] = tested on: MCF7, MDA-MB-468 and MDA-MB-231 cells; assay: Cy3-tagged UAG binding assay in 3D cultures; design: species or system human; conditions: 1 μM Cy3-tagged UAG with 10% serum; live confocal imaging
Description: Binding Assays. Cy3-tagged UAG (Pepmic Co, LtD) binding assays were performed in 3D cultures of breast cancer cells. MCF7, […] and MDA-MB231 cells were seeded at a density of 3,000 cells per well in Matrigel in optical-bottom 96-well plates. Cells were serum-starved overnight. Hoechst nuclear stain was added prior to the live cell imaging. 1 μM Cy3-tagged UAG with 10% serum was then added and time-lapse confocal imaging was performed to examine the localization of peptide binding.

[2] = tested on: patient-derived breast cancer cells; assay: 3D growth of patient-derived breast cancer cells; type: cell-based, human
Excerpt: Human BC Tissues and Preclinical Patient Derived Xenograft Models. Patient-derived breast tumors (PDX, (Zhang, et al., Cancer Res 15:4885-97 (2013)) and estrogen receptor positive (ER^+) breast tumors were used under IRB-approved protocols (WCM 1410015560 and 1603017108). All patients provided written informed consent. Cells were isolated and maintained in DMEM, supplemented with 10% fetal calf serum (FCS), 100U/ml penicillin/streptomycin and 1% sodium pyruvate (ThermoFisher Scientific). Cells were grown at 37° C. in a humidified atmosphere with 5% CO2. See Method Details for cell growth and proliferation work specific procedures.
(§1) Cell Growth and Proliferation Assays. 3D culture of a panel of breast cancer and colon cancer cells were seeded at a density of 3,000 cells per well in media containing 30% growth-factor-reduced matrigel or 5 mg/ml Collagen in optical-bottom 96-well plates. Patient-derived breast tumors were first dissociated into single cell suspensions and seeded at a density of 32,000 cells per well in media containing 30% matrigel. […] At the end of the experimental time point, cells were fixed in 100% methanol. The total number of cells, or the number of dead or proliferating cells was assessed using Hoechst, EarlyTox Dead Assay Kit (Molecular Devices), or Click-IT EdU Kit (ThermoFisher Scientific), respectively, and analyzed according to the manufacturer's protocols. Cells were then imaged with >95% well coverage (magnification of 10× with 3×3 tiled images) per field using confocal microscopy. The number of nuclei/Ethidium Homodimer-III+/EdU+ cells were counted using Imaris software (Bitplane).

MCF7 cells = assay: 3D/2D cell growth assay (cell number, Hoechst); type: cell-based, human; conditions: for serum-stimulated growth (cell number): 60 nM KT5720, 1.4 μM SQ22536, 15 μM cAMPs-RP
Description: (§2) Human BC Cells. Human breast cancer cell lines, MCF7, T47D, ZR75, MDA-MB-231, MDA-MB-468, SKBR3, Hs578T and HEK293T, DU4475 and MDA-MB-157 were purchased from ATCC, USA. Human 4-OH tamoxifen resistant breast cancer cells (LCC2), RKO, RKO-T29, RKO-A19, HCT116, HCT116-HWT, HCT116-HMUT were cultured using methods were performed as described previously (Yun et al., Science 325(5947):1555-9 (2009)). MCF7, MDA-MB-231, MDA-MB-468, MDA-MB-157, Hs578T, HEK293T were grown in DMEM (Invitrogen), supplemented with 10% fetal calf serum (FCS) (Invitrogen), 100U/ml penicillin/streptomycin and 1% sodium pyruvate. ZR75, T47D, SKBR3 and DU4475 were grown in RPMI, supplemented with 10% FCS, 100 U/ml penicillin/streptomycin and 2 mM L-Glutamine (ThermoFisher Scientific). LCC2 were grown in phenol red-free DMEM, supplemented with 10% charcoal stripped serum (CCS; ThermoFisher Scientific), 100 U/ml penicillin/streptomycin and 1% sodium pyruvate. All cell lines were grown at 37° C. with 5% CO2 in a humidified environment. Mycoplasma detection of all cell lines were tested and negative results were observed.
as §1

MDA-MB-468 cells = assay: 3D/2D cell growth assay (cell number, Hoechst); type: cell-based, human; conditions: for growth of MDA-MB-468 cells: 60 nM KT5720, 1.4 μM SQ22536, 15 μM cAMPs-RP; for forskolin-stimulated cell growth: 10 μM forskolin; for cell growth in the presence of serum: 0.05-5 μM MK2206, 0.1-10 μM BKM120
Description: as §2, §1

[3] = Allas et al. 2016; cited from earlier work
J110 allografts = assay: Syngeneic allograft in FVB/N mice; type: in vivo, mouse; conditions: AZP531 200 μg/kg s.c.; 7 days; FVB mice
Description: (§3) Animal Experimental Model. All animal experiments were performed in Monash Animal Research Platform at Hudson Institute for Medical Research and Research Animal Resource Center at Weill Cornell Medicine. Experimental procedures were in accordance with guidelines for Animal Care and Use, approved by Monash University Animal Ethics Committee (MMCA2014/20) and Weill Cornell Medicine IACUC Protocol (REQ00016929). Athymic Balb/c nude, FVB/N (Animal Resources Centre, Australia) and NSG (NOD Scid gamma; NOD.CgPrkdcscidIl2rgtmlwjl/SzJ) mice (The Jackson laboratory and Monash Breeding Colony platform) were used for this study. All mouse procedures were performed with 6-8 weeks old female mice and treatments administered via subcutaneous injection. See additional details included herein for specific in vivo experimental procedures.
A syngeneic breast cancer mouse model was created in female FVB/N mice. 1.25×10^5 J110 cells were injected into the mammary fat pad of 6-week old FVB (Immunocompetent) mice. […]
Measurement of Apoptotic Cells from Xenograft/Allograft Studies. MCF7, ZR75 and J110 tumor sections post treatment with 100 μg/kg or 200 μg/kg of unacylated ghrelin were assessed using Hoechst nuclear stain and confocal microscopy. Quantification of cells with apoptotic nuclei was performed using Image J.

MDA-MB-468 xenografts = assay: Xenograft in NSG mice; type: in vivo, mouse; conditions: 200 μg/kg s.c., 28 days
Description: as §3
Additional studies were also performed in NSG mice. MDA-MB-468 (1×10^6) were injected into the mammary fat pad of 6-week old NSG (immunodeficient) mice. Once the tumor reached a volume of 150 mm^3, the mice were randomized to receive saline (vehicle control) or AZP531 via subcutaneous injection. After 28 days of treatment, the mice were humanely sacrificed by cervical dislocation.

MDA-MB-231 cells = assay: 3D/2D cell growth assay (cell number, Hoechst); type: cell-based, human; conditions: for forskolin-stimulated cell growth: 10 μM forskolin, 3D; for cell growth in the presence of serum: 0.05-5 μM MK2206, 0.1-10 μM BKM120
[4] = tested on: ERK activity in EKAR-transfected MCF7 cells; assay: ERK activity assay (EKAR FRET reporter); type: cell-based, human; conditions: 10% serum; 3D; time-lapse confocal
Description: ERK Activity Assay: The EKAR FRET-based system was used to monitor ERK activity. Briefly, breast cancer cells were co-transfected with pPBJ-puro-FRET3-EKAR-nls and the pCMV-hyPBase transposase vector, and stably transfected cells selected using FACS for EYFP and ECFP-positive cells. Cells were then cultured in 3D and serum-starved overnight. Prior live cell time-lapse confocal imaging, medium was replaced with 100 pM unacylated ghrelin and 10% serum. Images were acquired following FRET and analyzed using Imaris software. Data normalized to ECFP signal.

[5] = tested on: panel of breast cancer cell lines; assay: 3D cell growth assay in a panel of breast cancer cell lines; type: cell-based, human; conditions: 100 pM
Description: as §2, with “All cell lines were grown at 37° C. with 5% CO2 in a humidified environment. Mycoplasma detection of all cell lines were tested and negative results were observed.” left out
Cell Growth and Proliferation Assays. […] The total number of cells, or the number of dead or proliferating cells was assessed using Hoechst, EarlyTox Dead Assay Kit (Molecular Devices), or Click-IT EdU Kit (ThermoFisher Scientific), respectively, and analyzed according to the manufacturer's protocols. […] The number of nuclei/Ethidium Homodimer-III+/EdU+ cells were counted using Imaris software (Bitplane).

For “Cy3-labeled unacylated ghrelin: Cy3-tagged UAG (Pepmic Co, LtD) used for binding assays (GSSFLSPEHQRVQQRKESKKPPAKLQP; also: Cy3 label, position not given here; UniProt Q9UBU3 24-50, looked up)”, the “binding to responsive and non-responsive cells” value [1] was “Binding”.
With “SPEHQRVQ (also: cyclic, ring type not given here) [AZP531]” the “serum-stimulated growth of patient-derived TNBC cells” value ([2]; dose-response) was “dose-dependent inhibition”, the “potency compared to doxorubicin” value ([2]; patient-derived TNBC cells, serum) was “greater potency than doxorubicin” and the “extent of cell number reduction” value ([2]; patient-derived TNBC cells, serum, unlike doxorubicin) was “did not reduce cell number beyond that which was stimulated by serum”. The “potency compared to doxorubicin” value (MCF7 cells; 3D, serum) was “greater potency than doxorubicin”, the “serum-stimulated growth of cells” value (MCF7 cells; 3D, serum, dose-response) was “dose-dependent inhibition” and the “extent of cell number reduction” value (MCF7 cells; 3D, serum, unlike doxorubicin) was “did not reduce cell number beyond that which was stimulated by serum”. For the same molecule, the “potency compared to doxorubicin” value (MDA-MB-468 cells; 3D, serum) was “greater potency than doxorubicin”, the “serum-stimulated growth of cells” value (MDA-MB-468 cells; 3D, serum, dose-response) was “dose-dependent inhibition” and the “extent of cell number reduction” value (MDA-MB-468 cells; 3D, serum, unlike doxorubicin) was “did not reduce cell number beyond that which was stimulated by serum”. The “pharmacokinetic properties relative to unacylated ghrelin” value [3] was “better pharmacokinetic properties than unacylated ghrelin”, the safety profile [3] was “established safety profile” and the “tumor cell growth (tumor volume)” value (J110 allografts) was “suppression of cell growth”. For the same molecule, the “tumor cell growth (tumor volume)” value (MDA-MB-468 xenografts) was “suppression of cell growth”.
With `CCCCCCOC(=O)[C@]1(O)C[C@@H]2O[C@@]1(C)n1c3ccccc3c3c4c(c5c6ccccc6n2c5c31)C(=O)NC4` [KT5720] the “serum-stimulated growth (cell number)” value (MCF7 cells; serum) was “significant reduction in cell number” and the “growth of MDA-MB-468 cells” value (MDA-MB-468 cells) was “suppress the growth”.
For `N#CC(=C(/N)Sc1ccccc1N)/C(C#N)=C(\N)Sc1ccccc1N` [U0126], the forskolin-stimulated cell growth (MCF7 cells; 10 μM forskolin, 3D) was “significant reduction”, the forskolin-stimulated cell growth (MDA-MB-468 cells; 3D) was “significant reduction” and the forskolin-stimulated cell growth (MDA-MB-231 cells) was “significant reduction”. For the same molecule, the “serum-stimulated EKAR (ERK) activity” value [4] was “inhibited”.
With `Nc1ncnc2c1ncn2[C@@H]1O[C@@H]2CO[P@@](O)(=S)O[C@H]2[C@H]1O` [cAMPS-RP] the “serum-stimulated growth (cell number)” value (MCF7 cells; serum) was “significant reduction in cell number” and the “growth of MDA-MB-468 cells” value (MDA-MB-468 cells) was “suppress the growth”.
With “GSS(n-octanoyl)FLSPEHQRVQQRKESKKPPAKLQPR (GSS(Octanoyl)FLSPEHQRVQQRKESKKPPAKLQPR) [acyl ghrelin]” the “breast cancer cell growth in serum-stimulated conditions (FIG. 15G)” value [5] was “inhibited breast cancer cell growth”.
For `Nc1cc(C(F)(F)F)c(-c2cc(N3CCOCC3)nc(N3CCOCC3)n2)cn1` [BKM120], the “cell growth in the presence of serum” value (MDA-MB-468 cells; serum) was “inhibited” and the “cell growth in the presence of serum” value (MDA-MB-231 cells) was “inhibited”.
With `NC1(c2ccc(-c3nc4ccn5c(=O)[nH]nc5c4cc3-c3ccccc3)cc2)CCC1` [MK2206] the forskolin-stimulated cell growth (MDA-MB-468 cells; 3D) was “inhibit”, the “cell growth in the presence of serum” value (MDA-MB-468 cells; serum) was “inhibited” and the forskolin-stimulated cell growth (MDA-MB-231 cells) was “inhibit”. The “cell growth in the presence of serum” value (MDA-MB-231 cells) was “inhibited”.
For `Nc1ncnc2c1ncn2C1CCCO1` (stereo not shown) [SQ22536], the “serum-stimulated growth (cell number)” value (MCF7 cells; serum) was “significant reduction in cell number” and the “growth of MDA-MB-468 cells” value (MDA-MB-468 cells) was “suppress the growth”.
